{"source": "paper PMC8012331", "about": "“Drug-induced hepatic steatosis in absence of severe mitochondrial dysfunction in HepaRG cells: proof of multiple mechanism-based toxicity” (Cell Biology and Toxicology, 2020)", "key": {"apolipoprotein B (APOB)": {"test_system": "apolipoprotein B (APOB)", "assay": "RT-qPCR APOB mRNA in HepaRG cells", "assay_type": "cell-based, human", "conditions": "4 days", "procedure": "(§1) Total RNA was extracted with the Nucleospin RNA isolation system purchased from Macherey-Nagel (Düren, Germany), which included a DNase treatment step. Quantification of isolated RNAs was assessed using a Nanodrop 1000 (Thermo Fisher Scientific, Waltham, MA). RNAs were reverse-transcribed into cDNAs using the High-Capacity cDNA Reverse Transcription Kit purchased from Applied Biosystems (Woolston, UK). Gene expression was assessed by real-time quantitative PCR analysis (RT-qPCR) using SYBR Green PCR Master Mix (Applied Biosystems) and a 384-well QuantStudio™ 7 Flex Real-Time PCR System (Thermo Fisher Scientific). Sequences of the primers used to measure gene expression are presented in Supplementary Table 3. Expression of GAPDH was chosen as reference and the 2^−ΔΔCt calculation method was used to express the relative expression of each selected gene."}, "HepaRG cells [1]": {"test_system": "HepaRG cells", "assay": "Neutral lipids with Nile red in HepaRG cells", "conditions": "4 days", "procedure": "Briefly, HepaRG cells were seeded in 96-well plates at a density of 2.6 × 10^4 cells/cm^2 and were first incubated in William’s E medium supplemented with 10% FBS (50% FBS from Eurobio and 50% FBS from GE Healthcare), 100 U/mL penicillin, 100 μg/mL streptomycin, 2 mM glutamine, 5 μg/mL insulin, and 50 μM hydrocortisone hemisuccinate. […] During this 1-month period, the culture medium was renewed three times a week. […] HepaRG cells were next cultured in the same FBS/DMSO conditions and incubated for 4 days with each drug at different concentrations. Culture medium was renewed every day and all investigations were performed after 96 h (i.e., 24 h after the fourth treatment). These investigations were mostly performed in 96-well plates except for western blot analysis, for which 6-well plates were used. Experiments were carried out on passages 9 to 16. All drugs (except DPEN), etomoxir, lomitapide, tunicamycin, thapsigargin, and TUDCA were dissolved in DMSO. DPEN was dissolved in water.\nCells were then incubated with PBS containing 0.1 μg/mL Nile red for 30 min and washed once. […] For each well, four pictures were taken at a magnification of × 20 and analyzed with Columbus software (PerkinElmer) for quantification. These pictures were always taken in four different areas around the center of each well, and these areas were the same from one well to another, as programmed by the Columbus software. This software was also designed to count only living cells after exclusion of dying cells harboring nuclei with abnormal shape or altered Hoechst intensity. […] Neutral lipids were then normalized per number of nuclei and expressed relative to control cells. Examples of images used for neutral lipid quantification are shown in Supplementary Fig. 2."}, "apoB secretion": {"test_system": "apoB secretion", "assay": "apoB level in culture medium (ELISA), HepaRG cells", "assay_type": "cell-based, human", "conditions": "4 days; for Effect on apoB secretion: culture medium, vs control", "procedure": "(§2) Experiments were carried out on passages 9 to 16. […] DPEN was dissolved in water.\nTwenty-four hours after the last treatment, cell supernatants were removed and stored at − 80 °C until use for apolipoprotein measurement. ApoB level was measured using the Human Apolipoprotein B ELISA^pro kit from Mabtech (Nacka Strand, Sweden), according to the manufacturer’s instructions. Briefly, 50 μL of samples were diluted 2× in Apo ELISA buffer before a 2-h incubation in the precoated strip plates provided in the kit. The plates were washed and incubated 1 h with the biotinylated monoclonal anti-human apoB (LDL-11-biotin) antibody. The plates were then washed and incubated 1 h with a streptavidin–horseradish peroxidase conjugated antibody. After another washing, 3,3′,5,5′-tetramethylbenzidine (TMB) was used as substrate for 15 min before adding a stop solution. Absorbance at 450 nm was then measured using a POLARstar Omega microplate reader (BMG Labtech, Ortenberg). ApoB level was calculated utilizing a four-parameter standard curve, and normalized to the total cellular protein content and expressed in comparison to control cells."}, "HepaRG cells [2]": {"test_system": "HepaRG cells", "assay": "Number of nuclei (Hoechst 33342) in HepaRG cells", "assay_type": "cell-based, human", "conditions": "HepaRG cells treated with TUDCA alone"}, "[3]": {"test_system": "prolyl 4-hydroxylase subunit beta (P4HB, also known as PDI)", "assay": "RT-qPCR P4HB mRNA in HepaRG cells", "assay_type": "cell-based, human", "conditions": "4 days, vs control", "procedure": "as §1"}, "[4]": {"test_system": "angiopoietin-like 3 (ANGPTL3)", "assay": "RT-qPCR ANGPTL3 mRNA in HepaRG cells", "assay_type": "cell-based, human", "conditions": "4 days, vs control", "procedure": "as §1"}, "[5]": {"test_system": "apolipoprotein C3 (APOC3)", "assay": "RT-qPCR APOC3 mRNA in HepaRG cells", "assay_type": "cell-based, human", "conditions": "4 days, vs control", "procedure": "as §1"}, "[6]": {"test_system": "de novo lipogenesis (DNL)", "assay": "DNL from [2-14C]acetic acid in HepaRG cells", "assay_type": "cell-based, human", "conditions": "4 days, vs control", "procedure": "as §2\nDNL was assessed by measuring newly synthesized radiolabeled lipids from [2-^14C]acetic acid, using a protocol adapted from Byrne et al. ([2014]). Briefly, culture medium was removed and cells were washed with warm PBS. Next, cells were incubated for 3 h with phenol red-free William’s E medium containing 1% fatty acid-free BSA, [2-^14C]acetic acid (1850 Bq per well, corresponding to 19.4 pM) and 50 μM cold acetic acid. Medium was then gently removed and cells were washed with warm PBS before adding a mix of hexane/isopropanol (3:2; v/v). Cell culture plates were sealed and incubated for 1 h at room temperature for lipid extraction. After transfer of the plate content in 200-μL microtubes, hexane and PBS were added to have a hexane/isopropanol/PBS ratio of 6:2:3 (v/v/v). Microtubes were then centrifuged at 1000×g for 5 min and radiolabeled lipids were counted in the upper phase with a Tri-Carb 4910TR liquid scintillation counter (PerkinElmer). Results were normalized to total protein content and expressed in comparison to control cells."}, "ERN1 (IRE1α)": {"test_system": "ERN1 (IRE1α)", "assay": "RT-qPCR ERN1 mRNA in HepaRG cells", "assay_type": "cell-based, human", "conditions": "4 days, vs control", "procedure": "as §1"}, "HSPA5 (BIP)": {"test_system": "HSPA5 (BIP)", "assay": "RT-qPCR HSPA5 mRNA in HepaRG cells", "assay_type": "cell-based, human", "conditions": "4 days, vs control", "procedure": "as §1"}, "[7]": {"test_system": "microsomal triglyceride transfer protein (MTTP)", "assay": "RT-qPCR MTTP mRNA in HepaRG cells", "assay_type": "cell-based, human", "conditions": "4 days, vs control", "procedure": "as §1"}, "DDIT3 (CHOP)": {"test_system": "DDIT3 (CHOP)", "assay": "RT-qPCR DDIT3 mRNA in HepaRG cells", "assay_type": "cell-based, human", "conditions": "4 days, vs control", "procedure": "as §1"}, "[8]": {"test_system": "mitochondrial fatty acid oxidation (mtFAO)", "assay": "mtFAO with [U-14C]palmitic acid in HepaRG cells", "assay_type": "cell-based, human", "conditions": "4 days, vs control", "procedure": "as §2\nResults were normalized to total protein content determined using the Pierce BCA assay kit from Thermo Fischer Scientific (Waltham, MA). Results were expressed in comparison to control cells."}, "[9]": {"conditions": "TUDCA 2 or 4 mM with 750 μM ALLO, 300 μM INDO, 300 μM RIF or 10 μM tunicamycin"}}, "data": [{"molecule": "C[C@H](CCC(=O)NCCS(=O)(=O)O)[C@H]1CC[C@H]2[C@@H]3[C@@H](O)C[C@@H]4C[C@H](O)CC[C@]4(C)[C@H]3CC[C@]12C", "note": "[TUDCA, tauroursodeoxycholic acid]", "values": [{"measurement": "Effect on APOB mRNA level in cells cotreated with ALLO, INDO, RIF or tunicamycin", "setting": "apolipoprotein B (APOB); [9]", "result": "higher apoB mRNA level"}, {"measurement": "Effect on neutral lipid accumulation induced by ALLO, INDO, RIF or tunicamycin", "setting": "HepaRG cells [1]; [9]", "result": "alleviate neutral lipid accumulation"}, {"measurement": "Effect on apoB secretion in cells cotreated with ALLO, INDO, RIF or tunicamycin", "setting": "apoB secretion; [9]", "result": "improved apoB secretion"}, {"measurement": "Increase in the number of nuclei", "setting": "HepaRG cells [2]", "result": 38, "unit": "%"}]}, {"molecule": "C/C=C(/C)C(=O)O[C@H]1C(C)=C2[C@H]([C@@H]1OC(=O)CCCCCCC)[C@@](C)(OC(C)=O)C[C@H](OC(=O)CCC)[C@@]1(O)[C@H]2OC(=O)[C@@]1(C)O", "note": "[thapsigargin]", "values": [{"measurement": "P4HB (PDI) mRNA level", "setting": "[3]", "result": "induced"}, {"measurement": "APOB mRNA level", "setting": "apolipoprotein B (APOB); vs control", "result": "also reduced APOB mRNA abundance"}, {"measurement": "ANGPTL3 mRNA level", "setting": "[4]", "result": "reduced the mRNA level"}, {"measurement": "APOC3 mRNA level", "setting": "[5]", "result": "reduced the mRNA level"}, {"measurement": "Effect on DNL", "setting": "[6]", "result": "strongly reduced DNL"}, {"measurement": "ERN1 (IRE1α) mRNA level", "setting": "ERN1 (IRE1α)", "result": "augmented the mRNA level"}, {"measurement": "HSPA5 (BIP) mRNA level", "setting": "HSPA5 (BIP)", "result": "augmented the mRNA level"}, {"measurement": "Effect on apoB secretion", "setting": "apoB secretion", "result": "reduced secretion of apoB"}, {"measurement": "MTTP mRNA level", "setting": "[7]", "result": "reduced the mRNA level"}, {"measurement": "DDIT3 (CHOP) mRNA level", "setting": "DDIT3 (CHOP)", "result": "augmented the mRNA level"}, {"measurement": "Effect on mtFAO", "setting": "[8]", "result": "increased mtFAO"}]}, {"molecule": "tunicamycin", "values": [{"measurement": "P4HB (PDI) mRNA level", "setting": "[3]", "result": "induced"}, {"measurement": "ANGPTL3 mRNA level", "setting": "[4]", "result": "reduced the mRNA level"}, {"measurement": "APOC3 mRNA level", "setting": "[5]", "result": "reduced the mRNA level"}, {"measurement": "Accumulation of neutral lipids (steatosis)", "setting": "HepaRG cells [1]; selected concentrations (ATP loss < 30%, not above 100 × Cmax), vs control", "result": "increased neutral lipids"}, {"measurement": "Effect on DNL", "setting": "[6]", "result": "strongly reduced DNL"}, {"measurement": "ERN1 (IRE1α) mRNA level", "setting": "ERN1 (IRE1α)", "result": "augmented the mRNA level"}, {"measurement": "HSPA5 (BIP) mRNA level", "setting": "HSPA5 (BIP)", "result": "augmented the mRNA level"}, {"measurement": "Effect on apoB secretion", "setting": "apoB secretion", "result": "reduced secretion of apoB"}, {"measurement": "MTTP mRNA level", "setting": "[7]", "result": "reduced the mRNA level"}, {"measurement": "DDIT3 (CHOP) mRNA level", "setting": "DDIT3 (CHOP)", "result": "augmented the mRNA level"}, {"measurement": "Effect on mtFAO", "setting": "[8]", "result": "increased mtFAO"}]}]}
